Measured values reported in PubChem BioAssay AID602121 (Johns Hopkins Ion Channel Center, 2011).
Activity calls are given as the source filed them.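 Rule for the calls: active = opens the KCNQ1 potassium channel at some tested dose and gives a fittable dose response curve; inactive = the rest.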

What follows are molecules tested against Potassium voltage-gated channel subfamily KQT member 1 (Homo sapiens) (UniProt P51787) (assay: KCNQ1 potassium current enhancement – automated patch clamp, CHO cells, set 2, SAR follow-up (AID 602121)). Details: not given.
Potassium voltage-gated channel subfamily KQT member 1 (Homo sapiens), sequence (P51787 whole entry, looked up): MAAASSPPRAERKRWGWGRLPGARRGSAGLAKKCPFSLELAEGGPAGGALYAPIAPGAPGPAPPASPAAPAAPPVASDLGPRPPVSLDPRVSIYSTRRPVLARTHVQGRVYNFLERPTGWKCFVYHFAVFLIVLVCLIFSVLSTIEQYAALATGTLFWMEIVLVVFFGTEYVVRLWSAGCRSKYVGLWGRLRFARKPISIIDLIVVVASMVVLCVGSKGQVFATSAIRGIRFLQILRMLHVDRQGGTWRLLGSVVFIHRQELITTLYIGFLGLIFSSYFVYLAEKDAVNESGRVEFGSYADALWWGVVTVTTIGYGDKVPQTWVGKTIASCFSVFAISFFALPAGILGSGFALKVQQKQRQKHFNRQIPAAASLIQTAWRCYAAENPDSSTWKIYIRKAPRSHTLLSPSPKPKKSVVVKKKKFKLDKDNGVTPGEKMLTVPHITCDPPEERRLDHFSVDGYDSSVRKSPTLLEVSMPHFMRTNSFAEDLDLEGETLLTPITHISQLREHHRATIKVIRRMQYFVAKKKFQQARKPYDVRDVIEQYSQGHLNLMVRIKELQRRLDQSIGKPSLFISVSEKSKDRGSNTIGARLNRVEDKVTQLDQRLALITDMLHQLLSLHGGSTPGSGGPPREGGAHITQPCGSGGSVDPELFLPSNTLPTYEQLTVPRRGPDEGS

EC50 | Compound
3350 nM | Cc1ccc(S(=O)(=O)N2CCCC[C@@H]2C(=O)Nc2ccc(F)c(C)c2)cc1
778 nM | COc1ccc(-c2csc(NC(=O)[C@H]3CCCCN3S(=O)(=O)c3ccc4c(c3)OCO4)n2)cc1
2250 nM | Cc1ccc(S(=O)(=O)N2CCCC[C@@H]2C(=O)Nc2ccc(C)c(C)c2)cc1
3240 nM | Cc1ccc(S(=O)(=O)N2CCCC[C@@H]2C(=O)Nc2cccc(C(F)(F)F)c2)cc1

Same assay, conditions: at 30 µM (top of the series)

Compound | current activation
Cc1ccc(S(=O)(=O)N2CCCC[C@@H]2C(=O)Nc2ccncc2)cc1 | inactive
Cc1ccc(S(=O)(=O)N2CCCC[C@@H]2C(=O)Nc2cccc(Cl)n2)cc1 | inactive
CCc1cccc(NC(=O)[C@H]2CCCCN2S(=O)(=O)c2ccc(C)cc2)n1 | inactive
COC(=O)c1cccc(NC(=O)[C@H]2CCCCN2S(=O)(=O)c2ccc(C)cc2)c1 | inactive
Cc1ccc(S(=O)(=O)N2CCCC[C@@H]2C(=O)Nc2ccc(C)c(Br)c2)cc1 | inactive

The next lines start with the values.

current activation | Compound
inactive | Cc1ccc(S(=O)(=O)N2CCCC[C@@H]2C(=O)Nc2ccccc2)cc1
inactive | Cc1ccc(S(=O)(=O)N2CCCC[C@@H]2C(=O)Nc2cccc([N+](=O)[O-])c2)cc1
inactive | COc1cccc(NC(=O)[C@H]2CCCCN2S(=O)(=O)c2ccc(C)cc2)c1
